Publication PMC8271706, “Structural Characterization and Assessment of Anti-Inflammatory and Anti-Tyrosinase Activities of Polyphenols from Melastoma normale” (Molecules, 2021)

Tests used:
[1] = system: LPS-stimulated RAW 264.7 cells; assay: NO production by LPS-stimulated RAW 264.7 cells (Griess); format: cell-based; details: Mus musculus, RAW264.7, read-out: IC50 for the inhibition of NO production
Description: Four new compounds 1–4 were tested for potential anti-inflammatory activity by measuring the inhibition of the nitric oxide (NO) production. […] The IC50 values for the inhibition of NO production by compounds 1–4 are all > 50 μM. […] From the experimental results and literature data, the flavonoids in the title plant have better anti-inflammatory activity than ellagitannins, it may be the active ingredient corresponding to the anti-inflammatory effect of this plant.
The RAW 264.7 cells were cultivated in DMEM supplemented with 10% FBS at 37 °C in a humidified atmosphere of 5% CO2 for 24 h. Cells in 24-well plate (5 × 10^4 cells/well) were treated with 200 ng/mL LPS and the test compounds. After 22 h, the media were collected, and the level of nitrite was measured using the Griess Reagent System (Promega, Madison, WI, USA).

mushroom tyrosinase = assay: Anti-tyrosinase activity, L-DOPA as substrate; format: biochemical; details: for IC50: IC50 ± SD, pH 6.8, read-out: Tyrosinase inhibitory activity IC50
Description: All compounds were investigated for potential tyrosinase inhibitory activity.
The anti-tyrosinase activities of the isolates were investigated according to the procedure described by Aoki et al. with slight modifications. […] Solution of L-DOPA at 5.0 mM, mushroom tyrosinase at 100 U/mL, as well as samples at different concentrations were prepared in phosphate buffer (pH 6.8). 20 µL of the sample solution and 10 µL of mushroom tyrosinase solution were mixed and pre-incubated at 37 °C for 10 min, then 40 µL of L-DOPA solution was added and incubated at 37 °C for 5 min. The absorbance was measured at 475 nm using the Spark 10M multimode microplate reader (Tecan Trading AG, Zurich, Switzerland). All assays were repeated three times and each time in triplicate. The percent inhibition of tyrosinase activity was calculated using the following formula:Tyrosinase inhibition (%) = [1 − (T − T0)/(C − C0)] × 100 where T represents the absorbance with sample and tyrosinase; T0 represents the absorbance with sample but no tyrosinase; C represents the absorbance with tyrosinase but no sample; C0 represents the absorbance without tyrosinase and sample.

[2] = cited from earlier work

CCOC(=O)C1(O)C(=O)C2=C3C(=O)OC(C2OCC)C2OC(=O)c4c(c(O)c(O)c(O)c4C31)-c1c(cc(O)c(O)c1O)C(=O)OC1COC(=O)c3cc(O)c(O)c(O)c3-c3c(cc(O)c(O)c3O)C(=O)OC12 (stereo not drawn) [Compound 1, Whiskey tannin C]
IC50 [1]: > 50 µM
tyrosinase inhibitory activity (in words) (mushroom tyrosinase): weak
IC50 (mushroom tyrosinase): 426 ± 11.3 µM

COc1c(O)cc(C(=O)O[C@@H]2O[C@H](COC(=O)c3cc(O)c(O)c(O)c3)[C@@H](O)[C@@H]3OC(=O)c4cc(O)c(O)c(O)c4-c4c(cc(O)c(O)c4O)C(=O)O[C@@H]23)cc1O [Compound 2, 1-O-(4-methoxygalloyl)-6-O-galloyl-2,3-O-(S)-hexahydroxydiphenoyl-β-D-glucose]
IC50 [1]: > 50 µM
IC50 (mushroom tyrosinase): 241 ± 6.23 µM

COc1cc(C(=O)OC[C@H]2O[C@@H](OC(=O)c3cc(O)c(O)c(O)c3)[C@@H]3OC(=O)c4cc(O)c(O)c(O)c4-c4c(cc(O)c(O)c4O)C(=O)O[C@H]3[C@@H]2O)cc(O)c1O [Compound 3, 1-O-galloyl-6-O-(3-methoxygalloyl)-2,3-O-(S)-hexahydroxydiphenoyl-β-D-glucose]
IC50 [1]: > 50 µM
IC50 (mushroom tyrosinase): 154 ± 3.63 µM

COc1cc(C(=O)OC[C@H]2O[C@@H](OC(=O)c3cc(O)c(O)c(O)c3)[C@@H]3OC(=O)c4cc(O)c(O)c(O)c4-c4c(cc(O)c(O)c4O)C(=O)O[C@H]3[C@@H]2O)ccc1O [Compound 4, 1-O-galloyl-6-O-vanilloyl-2,3-O-(S)-hexahydroxydiphenoyl-β-D-glucose]
IC50 [1]: > 50 µM
IC50 (mushroom tyrosinase): 125 ± 3.12 µM

O=c1c(O)c(-c2ccc(O)cc2)oc2cc(O)cc(O)c12 [Compound 7, kaempferol]
IC50 (mushroom tyrosinase): 1900 ± 38.2 µM
anti-inflammatory activity (in words) [2]: have anti-inflammatory activity

C[C@@H]1O[C@@H](Oc2c(-c3ccc(O)cc3)oc3cc(O)cc(O)c3c2=O)[C@H](O)[C@H](O)[C@H]1O [Compound 8, kaempferol-3-rhamnoside]
tyrosinase inhibitory activity (in words) (mushroom tyrosinase): no significant
IC50 (mushroom tyrosinase): > 2000 µM
anti-inflammatory activity (in words) [2]: have no anti-inflammatory activity

O=c1c(O)c(-c2ccc(O)c(O)c2)oc2cc(O)cc(O)c12 [Compound 10, quercetin]
tyrosinase inhibitory activity (in words) (mushroom tyrosinase): significant
anti-inflammatory activity (in words) [2]: have anti-inflammatory activity

C[C@@H]1O[C@@H](Oc2c(-c3ccc(O)c(O)c3)oc3cc(O)cc(O)c3c2=O)[C@H](O)[C@H](O)[C@H]1O [Compound 11, quercetin-3-O-α-L-rhamnoside]
IC50 (mushroom tyrosinase): 98.2 ± 2.31 µM
anti-inflammatory activity (in words) [2]: have no anti-inflammatory activity

C[C@@H]1O[C@@H](Oc2c(-c3cc(O)c(O)c(O)c3)oc3cc(O)cc(O)c3c2=O)[C@H](O)[C@H](O)[C@H]1O [Compound 12, myricetin-3-O-α-L-rhamnopyranoside]
tyrosinase inhibitory activity (in words) (mushroom tyrosinase): no significant
IC50 (mushroom tyrosinase): 905 ± 20.4 µM
anti-inflammatory activity (in words) [2]: have anti-inflammatory activity
